The text below walks through data of PubChem BioAssay (NCI).

What is called GI50 is the concentration that inhibits growth by half. For orientation: TGI means the concentration giving total growth inhibition. A higher TGI goes with lower sensitivity of the cells.

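Test compounds were applied to cells in 96-well plates for 48 hours at 5 doses. GI50 marks 50% less growth. Definition used: TGI = concentration required for complete inhibition of growth.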

What all share (assay): DTP human tumour cell line panel, 48 h
The test system of test [1] is 786-0 renal.
For test [2], the system named is HL-60(TB) leukemia.
The test system of test [3] is MOLT-4 leukemia.
In test [4] the test system is NCI/ADR-RES ovarian.
In test [5] the test system is OVCAR-3 ovarian.
Test [6] relates to SF-268 CNS.
The test system of test [7] is SNB-19 CNS.
The subject of test [8] is UO-31 renal.
Test [9] relates to CCRF-CEM leukemia.
Test [10] has as its system HOP-92 NSCLC.

With `COc1ccc(Nc2c3ccccc3nc3c2c2ccccc2n3C)cc1`, the GI50 was 40.6 µM in [1]; 3.99 µM in test [2]; 1880 nM in test [3]; 34 µM in test [4]; 23500 nM in [5]; 28 µM in [6]. Further, the GI50 in test [7] and in test [8] was > 100 µM throughout. For the same compound, the TGI in [1] was > 100 µM; in test [2], 45.6 µM; in [3], 5.36 µM; in test [4], > 100 µM; in [5], > 100 µM; in [6], > 100 µM. Moreover, the TGI in test [7] and in test [8] was > 100 µM each time.

Regarding `Cn1cc(-c2csc(-c3c[nH]c4ncccc34)n2)c2cc(Br)cnc21`, the GI50 in [1] was 9.65 µM; in test [9], 6.81 µM; in [2] it was > 100 µM; in [10], 5.03 µM; in test [3] it was > 100000 nM; in test [4], 3.89 µM. Moreover, the GI50 was 2910 nM in test [5], 6.01 µM in test [6] and 6.74 µM in test [7]. The total growth inhibition concentration (TGI) in [1], in test [9], in [2], in test [10], in test [3] and in [4] was > 100 µM throughout. Moreover, the total growth inhibition concentration (TGI) in test [5], in test [6] and in test [7] was > 100 µM each time.

Consider `COc1cccc(Nc2nc(NNC(=O)Cc3ccccc3)nc(NNC(=O)c3ccncc3)n2)c1`, for which the GI50 in [1] is > 100 µM; in test [9], > 100 µM; in [4], > 100 µM; in test [6], > 100 µM; in test [8], 32.3 µM. Moreover, the TGI in test [1], in test [9], in [2], in test [3], in [4] and in test [5] was > 100 µM in each case. The TGI in test [6], in test [7] and in [8] was > 100 µM each time.

For the compound `Cc1ccc(/C=C(\C#N)n2nnc3cc(Cl)c(Cl)cc32)cc1`, the GI50 in test [1] is 2.46 µM; in [9], 1.32 µM; in test [2], 1.78 µM; in test [10], 1.61 µM; in test [3], 2730 nM; in test [4], 2.22 µM. Moreover, the GI50 in test [5] is 2930 nM; in test [6] it was 3.66 µM; in test [8], 1.59 µM. For the same compound, the concentration for total growth inhibition (TGI) was 6 µM in test [1]; > 100 µM in test [9]; 6.94 µM in test [2]; 9.65 µM in test [10]; > 100 µM in [3]; 7.61 µM in [4]. Moreover, the concentration for total growth inhibition (TGI) was 12.8 µM in test [5], > 100 µM in [6] and 3.35 µM in test [8].

Turning to `NC(=S)N/N=C(/CC(=O)c1ccc([N+](=O)[O-])cc1)C(=O)Nc1ncc([N+](=O)[O-])s1`, the TGI in test [1], in test [9], in [2], in test [10], in test [3] and in [5] was > 100 µM each time. Further, the TGI in test [6], in [7] and in test [8] was > 100 µM each time.

Consider `CN(C)CCNC(=O)c1cccc2nc3ccc4ccccc4c3nc12`, for which the TGI in [1] turned out to be 1.99 µM; in test [9], 1.34 µM; in test [2] it was 0.494 µM; in test [10], 0.392 µM; in test [3], 0.124 µM; in test [5] it was 0.53 µM. Further, the concentration for total growth inhibition (TGI) stood at 0.675 µM in test [6], 0.921 µM in [7] and 0.433 µM in [8].

For `OC(c1ccccc1)(c1ccccc1)c1ccccn1`, the TGI in test [1], in test [9], in test [2], in test [10], in [3] and in [5] was > 100 µM in each case. In addition, the total growth inhibition concentration (TGI) in test [6], in test [7] and in test [8] was > 100 µM throughout.

As for `C/C(=N/O)C1CC=C(S(=O)(=O)c2ccccc2)C1` (configuration not stated), the TGI in test [1], in test [9], in [2], in test [10], in test [3] and in test [5] was > 100 µM each time. Moreover, the TGI in test [6], in [7] and in test [8] was > 100 µM throughout.

`O=C(CC(=O)N1N=C(n2ccc3ccccc32)CC1c1ccccc1)Nc1cccc(Cl)c1` (configuration not stated): the TGI in test [1], in test [9], in [2], in test [10], in [3] and in test [5] was > 100 µM in each case. In addition, the concentration for total growth inhibition (TGI) in [6], in test [7] and in test [8] was > 100 µM in each case.

Turning to `CC(=O)CC(=O)CCCC(=O)Nc1ccc(Cl)cc1C`, the total growth inhibition concentration (TGI) in test [1], in test [9], in test [2], in test [10], in [3] and in [5] was > 100 µM throughout. In addition, the TGI in [6], in test [7] and in [8] was > 100 µM throughout.

For `CCc1cccc(C(C)CC)c1N=C(NC(=O)c1ccccc1C(=O)NC(=Nc1c(CC)cccc1C(C)CC)SC)SC` (configuration not stated), the TGI in [1] was > 100 µM; in test [9], > 100 µM; in test [2], 51.5 µM; in [10], 39.2 µM; in test [3], > 100 µM; in test [5], > 100 µM. Moreover, the TGI in [6], in test [7] and in test [8] was > 100 µM throughout.

With `CCC(=O)C1=C(OC(C)=O)C2Cc3c(n(C)c4ccccc34)C(C1)N2C` (configuration not stated), the TGI was 66.4 µM in test [1]; 80.9 µM in test [9]; 53 µM in [2]; > 100 µM in test [10]; > 100 µM in [3]; > 100 µM in test [5]. In addition, the total growth inhibition concentration (TGI) in test [6] is 47.9 µM; in [7], > 100 µM; in test [8], > 100 µM.

Turning to `C/C(CN1C(=O)c2ccccc2C1=O)=N\NS(=O)(=O)c1ccccc1`, the TGI in test [1], in test [9], in test [2], in test [10], in [3] and in test [5] was > 100 µM throughout. For the same compound, the TGI in test [6], in test [7] and in [8] was > 100 µM in each case.
